Reference: patent publication US20220347267A1, “METHODS TO IMPROVE PATIENT RESPONSE TO IMMUNE CHECKPOINT INHIBITORS AND FUNCTIONAL TESTS TO PREDICT RESPONSE” (Biomarker Strategies, LLC, priority 2019, published 2022)

Experiments:
Format in all cases: cell-based, human
[1] = test system: BHY cells; test: PD-L1 western blot after modulators (EM and MTAs); conditions: Head and neck BHY, 30 minutes, 3 hours, 24 hours
From the text: (§1) Cell lines were acquired from ATCC, Sigma, or DSMZ. Human non-small cell lung carcinoma (NSCLC) cell lines H292 (ATCC no. CRL-1848.), H1299 (ATCC no. CRL-5803), H520 (ATCC no. CRL-5811), CALU6 (ATCC no. HTB-56), H1975 (ATCC no. CRL-5908), H460 (ATCC no. HTB-177), H2126 (ATCC no. CCL-256), H1650 (ATCC no. CRL-5883), and H2087 (ATCC no. CRL-5922) were used for this experiment along with head and neck squamous cell carcinoma (HNSCC) cell lines BHY (DSMZ ACC 404), CAL27 (ATCC no. CRL-2095), KYSE410 (Sigma), and A253 (ATCC no. HTB-41), melanoma cell lines A375 (ATCC no. CRL-1619), COL0853 (Sigma), and MM127 (Sigma) pancreatic cancer cell lines BXPC3 (ATCC no. CRL-1687), colorectal cancer cell lines […], HCT116 (ATCC no. CCL-247EMT), and breast cancer cell lines BT549 (ATCC no. HTB-122), BT20 (ATCC no. HTB-19), and T47D (ATCC no. HTB-133). Cells were maintained in manufacturer-recommended conditions at 37° C. inside humidified 5% CO2 incubators. Sub-cultivation and harvesting for all cell lines were performed using Accutase (GIBCO Life Technologies; cat. no. A1110501) at 37° C. for 10 minutes. Cell viability was measured using trypan blue exclusion staining in conjunction with the Countess II Automated Cell Counter (Thermo Fischer Scientific; cat. no. AMQAX1000). Measurements were made in duplicate and the average number of viable cells was recorded prior to experiments.
(§2) Enhancer Molecule and Therapies: IFNγ, (10 ng/ml; Sigma Aldrich, cat.no 11040596001), TNFα (10 ng/ml; BD Biosciences cat. no. 554618), Osimertinib (100 ng/ml; Selleckchem cat.no. S7297), Everolimus (100 ng/ml; Selleckchem cat.no S1120), GSK458 (10 ng/ml; Selleckchem cat. no. S2658), TNFb (50 ng/ml; Sigma Aldrich cat. no.), GSK795 (1,000 ng/ml; Selleckchem cat. no. S7492), IL-12 (50 ng/ml; Sigma Aldrich SRP3073), GM-CSF (50 ng/ml; Sigma Aldrich cat. no. G5035), IL-1a (1 ng/ml; Sigma Aldrich cat. no. 12778-), IL-6 (50 ng/ml; Sigma Aldrich), IL-17 (100 ng/ml; Sigma Aldrich cat. no. SRP3080), TGFb (1 ng/ml; Sigma Aldrich cat. no. T7039), and IL-10 (50 ng/ml; Sigma Aldrich cat. no. SRP3071) were administered to cell lines for various times including 30 minutes, 3 hour, and 24 hour time intervals prior to cell lysis and protein extraction.
(§3) To determine the effects of the aforementioned molecules on the modulation of PD-L1, we selected various NSCLC, HNSCC, breast cancer, melanoma, colorectal cancer, and pancreatic cancer cell lines as examples. Other diseases or cell lines could be used readily as could more complex samples such as cells isolated from xenografts and clinical samples. Cells were plated, for three different time points (30 minutes, 3 hours, and 24 hours), inside 6-well petri dishes with 2 mL of appropriate medium. Plates were incubated for 24 hours in 5% CO2 incubators at 37° C. After 24 hours, each 6-well plate was washed with PBS (Gibco Life Technologies, cat. no. 10010023) followed by fresh media being added along with each cell line's vehicle control or appropriate modulator for each specific time point, and were placed in CO2 incubators until their modulation time point was reached. Other conditions can be readily used, such as processing on automated systems such as SnapPath. At the end of each time point, while keeping plates on ice, cell lysis was conducted by aspirating culture medium from each plate, washing of each plate three times with 5 ml of cold PBS (Gibco Life Technologies, cat. no. 10010023) and culminated with the addition of cold 1× lysis buffer containing (Cell Signaling, cat. no. 9803 S) protease inhibitor cocktail (Cell Signaling, cat. no. 5871S), phosphatase inhibitor cocktail (Cell Signaling, cat. no. 5870S), and PMSF (Fisher Scientific, cat. no. ICN19538101). Plates were then placed on ice for ten minutes, swirling each plate intermittently. Aliquots of protein lysates were prepared and then stored at −80° C. until protein quantification and Western blot analysis was to be conducted. […]

[2] = test system: CAL27 cells; test: PD-L1 western blot after modulators (EM and MTAs); conditions: Head and neck CAL27, 30 minutes, 3 hours, 24 hours
From the text: as §1, §2, §3

[3] = test system: H1975 cells; test: PD-L1 western blot after modulators (EM and MTAs); conditions: NSCLC H1975, 30 minutes, 3 hours, 24 hours
From the text: as §1, §2, §3

[4] = test system: BT549 cells; test: PD-L1 western blot after modulators (EM and MTAs); conditions: Breast BT549, 30 minutes, 3 hours, 24 hours
From the text: as §1
(§4) T7039), and IL-10 (50 ng/ml; Sigma Aldrich cat. no. SRP3071) were administered to cell lines for various times including 30 minutes, 3 hour, and 24 hour time intervals prior to cell lysis and protein extraction.
(§5) To determine the effects of the aforementioned molecules on the modulation of PD-L1, we selected various NSCLC, HNSCC, breast cancer, melanoma, colorectal cancer, and pancreatic cancer cell lines as examples. Other diseases or cell lines could be used readily as could more complex samples such as cells isolated from xenografts and clinical samples. Cells were plated, for three different time points (30 minutes, 3 hours, and 24 hours), inside 6-well petri dishes with 2 mL of appropriate medium. Plates were incubated for 24 hours in 5% CO2 incubators at 37° C. After 24 hours, each 6-well plate was washed with PBS (Gibco Life Technologies, cat. no. 10010023) followed by fresh media being added along with each cell line's vehicle control or appropriate modulator for each specific time point, and were placed in CO2 incubators until their modulation time point was reached. Other conditions can be readily used, such as processing on automated systems such as SnapPath. At the end of each time point, while keeping plates on ice, cell lysis was conducted by aspirating culture medium from each plate, washing of each plate three times with 5 ml of cold PBS (Gibco Life Technologies, cat. no. 10010023) and culminated with the addition of cold 1× lysis buffer containing (Cell Signaling, cat. no. 9803 S) protease inhibitor cocktail (Cell Signaling, cat. no. 5871S), phosphatase inhibitor cocktail (Cell Signaling, cat. no. 5870S), and PMSF (Fisher Scientific, cat. no. ICN19538101). Plates were then placed on ice for ten minutes, swirling each plate intermittently. Aliquots of protein lysates were prepared and then stored at −80° C. until protein quantification and Western blot analysis was to be conducted. The protein concentration of each lysate was analyzed by using the Pierce 660 Protein Assay Reagent (Thermo Fisher Scientific, cat. no. 22660) and testing of each sample was conducted in duplicate. Two μg of protein was then loaded per lane into 10% Midi-PROTEAN TGX Precast Gels (Bio Rad, cat. no. 5671034) along with Kaleidoscope Prestained Protein Standard (BioRad, cat. no. 1610375) which ran at 220V for 45 minutes. Proteins were transferred to mini-PVDF membranes (BioRad, cat. no. 1704156) in 3 minutes using the Trans-Blot Turbo Transfer System (BioRad, cat. no. 1704150EDU).

[5] = test system: KYSE410 cells; test: PD-L1 western blot after modulators (EM and MTAs); conditions: Head and neck KYSE410, 30 minutes, 3 hours, 24 hours
From the text: as §1, §2, §3

[6] = test system: H292 cells; test: PD-L1 western blot after modulators (EM and MTAs); conditions: NSCLC H292, 30 minutes, 3 hours, 24 hours
From the text: as §1, §4, §5

[7] = test system: various NSCLC, HNSCC, breast cancer, melanoma, colorectal cancer, and pancreatic cancer cell lines; test: PD-L1 western blot after modulators, summary over all samples; conditions: depending on the sample, summary of Table 3
From the text: as §1, §4, §5

[8] = test system: H2087 cells; test: PD-L1 western blot after modulators (EM and MTAs); conditions: NSCLC H2087, 30 minutes, 3 hours, 24 hours
From the text: as §1, §2, §3

[9] = test system: BxPC3 cells; test: PD-L1 western blot after modulators (EM and MTAs); conditions: Pancreatic BxPC3, 30 minutes, 3 hours, 24 hours
From the text: as §1, §2, §3

[10] = test system: BT20 cells; test: PD-L1 western blot after modulators (EM and MTAs); conditions: Breast BT20, 30 minutes, 3 hours, 24 hours
From the text: as §1, §2, §3

[11] = test system: H1650 cells; test: PD-L1 western blot after modulators (EM and MTAs); conditions: NSCLC H1650, 30 minutes, 3 hours, 24 hours
From the text: as §1, §4, §5

[12] = test system: H2126 cells; test: PD-L1 western blot after modulators (EM and MTAs); conditions: NSCLC H2126, 30 minutes, 3 hours, 24 hours
From the text: as §1, §2, §3

Cn1ncc(Cl)c1-c1cc(C(=O)N[C@H](CN)Cc2ccc(F)c(F)c2)oc1Cl [GSK795, reference compound]
PD-L1 Response [1]: Up | PD-L1 Response [2]: Up | PD-L1 Response [3]: Down | PD-L1 Response [4]: Up

C=CC(=O)Nc1cc(Nc2nccc(-c3cn(C)c4ccccc34)n2)c(OC)cc1N(C)CCN(C)C [Osimertinib, reference compound]
PD-L1 Response [1]: Up | PD-L1 Response [5]: Up | PD-L1 Response [6]: Down | regulation of PD-L1 across samples [7]: both up and down regulation

TGFb: enhancer molecule, 1 ng/ml; Sigma Aldrich
regulation of PD-L1 across samples [7]: only led to upregulation

GM-CSF: enhancer molecule, 50 ng/ml; Sigma Aldrich
PD-L1 Response [8]: Up | regulation of PD-L1 across samples [7]: only led to upregulation

CO[C@H]1C[C@@H]2CC[C@@H](C)[C@@](O)(O2)C(=O)C(=O)N2CCCC[C@H]2C(=O)O[C@H]([C@H](C)C[C@@H]2CC[C@@H](OCCO)[C@H](OC)C2)CC(=O)[C@H](C)/C=C(\C)[C@@H](O)[C@@H](OC)C(=O)[C@H](C)C[C@H](C)/C=C/C=C/C=C/1C [everolimus, Everolimus]
PD-L1 Response [9]: Up | PD-L1 Response [6]: Down | regulation of PD-L1 across samples [7]: both up and down regulation

COc1ncc(-c2ccc3nccc(-c4ccnnc4)c3c2)cc1NS(=O)(=O)c1ccc(F)cc1F [GSK458, reference compound]
PD-L1 Response [10]: Up | PD-L1 Response [9]: Up | PD-L1 Response [6]: Down | regulation of PD-L1 across samples [7]: both up and down regulation

B1: TNFb: enhancer molecule, 50 ng/ml; Sigma Aldrich (protein, UniProt P01374 35-205, looked up)
Lymphotoxin-alpha: LPGVGLTPSAAQTARQHPKMHLAHSTLKPAAHLIGDPSKQNSLLWRANTDRAFLQDGFSLSNNSLLVPTSGIYFVYSQVVFSGKAYSPKATSSPLYLAHEVQLFSSQYPFHVPLLSSQKMVYPGLQEPWLHSMYHGAAFQLTQGDQLSTHTDGIPHLVLSPSTVFFGAFAL
PD-L1 Response [10]: Up | PD-L1 Response [3]: Up | PD-L1 Response [8]: Down | PD-L1 Response [11]: Up | regulation of PD-L1 across samples [7]: both up and down regulation

B2: IL1a: interleukin modulator, 1 ng/ml; Sigma Aldrich (protein, UniProt P01583 113-271, looked up)
Interleukin-1 alpha: SAPFSFLSNVKYNFMRIIKYEFILNDALNQSIIRANDQYLTAAALHNLDEAVKFDMGAYKSSKDDAKITVILRISKTQLYVTAQDEDQPVLLKEMPEIPKTITGSETNLLFFWETHGTKNYFTSVAHPNLFIATKQDYWVCLAGGPPSITDFQILENQA
PD-L1 Response [10]: Up | PD-L1 Response [3]: Up | PD-L1 Response [12]: Up | PD-L1 Response [5]: Up | PD-L1 Response [4]: Up | PD-L1 Response [11]: Up | PD-L1 Response [6]: Up | regulation of PD-L1 across samples [7]: only led to upregulation

B3: IL12: interleukin modulator, 50 ng/ml; Sigma Aldrich (protein, UniProt P29459 23-219; P29460 23-328, looked up)
Interleukin-12 subunit alpha: RNLPVATPDPGMFPCLHHSQNLLRAVSNMLQKARQTLEFYPCTSEEIDHEDITKDKTSTVEACLPLELTKNESCLNSRETSFITNGSCLASRKTSFMMALCLSSIYEDLKMYQVEFKTMNAKLLMDPKRQIFLDQNMLAVIDELMQALNFNSETVPQKSSLEEPDFYKTKIKLCILLHAFRIRAVTIDRVMSYLNAS
Interleukin-12 subunit beta: IWELKKDVYVVELDWYPDAPGEMVVLTCDTPEEDGITWTLDQSSEVLGSGKTLTIQVKEFGDAGQYTCHKGGEVLSHSLLLLHKKEDGIWSTDILKDQKEPKNKTFLRCEAKNYSGRFTCWWLTTISTDLTFSVKSSRGSSDPQGVTCGAATLSAERVRGDNKEYEYSVECQEDSACPAAEESLPIEVMVDAVHKLKYENYTSSFFIRDIIKPDPPKNLQLKPLKNSRQVEVSWEYPDTWSTPHSYFSLTFCVQVQGKSKREKKDRVFTDKTSATVICRKNASISVRAQDRYYSSSWSEWASVPCS
PD-L1 Response [3]: Down
